The record followed here is PubChem BioAssay AID1053155 (Broad Institute, 2014).

The structures appear in SMILES notation.

In this experiment the target is Low-density lipoprotein receptor (Homo sapiens) (UniProt P01130). In words: increase of LDL receptor protein in hepatoma cells – cell-based, HepG2, ELISA, plate reader, cherry-pick, orthogonal assay for Trib1 inducer project, dose response (AID 1053155). To be noted: HepG2 LDLR protein ELISA, 24 h; for fold induction: measured here: max LDLR protein fold induction, stronger effect = higher value.
Chain of Low-density lipoprotein receptor (Homo sapiens) (P01130 whole entry, looked up): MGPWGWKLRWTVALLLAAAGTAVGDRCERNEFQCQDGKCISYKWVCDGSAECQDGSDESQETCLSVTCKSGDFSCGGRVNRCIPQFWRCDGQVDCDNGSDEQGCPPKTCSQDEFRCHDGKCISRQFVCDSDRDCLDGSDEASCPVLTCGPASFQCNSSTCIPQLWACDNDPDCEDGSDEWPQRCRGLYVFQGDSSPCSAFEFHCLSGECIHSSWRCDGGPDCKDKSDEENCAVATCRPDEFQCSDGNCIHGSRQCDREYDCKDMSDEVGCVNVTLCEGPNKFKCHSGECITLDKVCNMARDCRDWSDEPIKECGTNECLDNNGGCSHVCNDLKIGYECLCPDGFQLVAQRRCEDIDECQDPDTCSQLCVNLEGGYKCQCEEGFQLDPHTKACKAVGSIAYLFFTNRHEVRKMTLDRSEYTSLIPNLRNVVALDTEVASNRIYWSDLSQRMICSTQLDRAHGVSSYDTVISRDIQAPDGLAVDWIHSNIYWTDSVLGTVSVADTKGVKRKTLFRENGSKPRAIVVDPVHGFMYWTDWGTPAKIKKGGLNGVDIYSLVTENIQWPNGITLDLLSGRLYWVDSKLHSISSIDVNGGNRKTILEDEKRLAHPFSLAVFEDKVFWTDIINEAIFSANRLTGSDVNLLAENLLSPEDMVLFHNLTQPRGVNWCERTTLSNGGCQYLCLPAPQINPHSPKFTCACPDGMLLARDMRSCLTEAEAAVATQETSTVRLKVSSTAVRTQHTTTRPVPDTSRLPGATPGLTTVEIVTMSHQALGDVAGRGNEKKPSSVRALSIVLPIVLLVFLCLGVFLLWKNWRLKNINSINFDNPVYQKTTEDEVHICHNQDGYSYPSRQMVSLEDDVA

As to `CN1C(=O)c2cc(NC(=O)c3ccc(C(F)(F)F)cc3)ccc2OC[C@@H]2O[C@@H](CC(=O)NC3Cc4ccccc4C3)CC[C@@H]21`, the AC50 was 18 µM and the fold induction was 3.3.
Taken in the same sequence, the figures for `CN1C(=O)c2cc(NC(=O)c3ccc(C(F)(F)F)cc3)ccc2OC[C@@H]2O[C@H](CC(=O)NC3Cc4ccccc4C3)CC[C@@H]21` were 0.55 µM and 4.6.
